The NIST ThermoML archive (doi:10.1021/je901020a)

What was measured:
[1] = xn = mol fraction of the nth substance listed; conditions: 101 kPa, Liquid; for speed of sound: Pulse-echo method
[2] = refractive index (Na D-line) (dimensionless); xn = mol fraction of the nth substance listed; conditions: 101 kPa, Liquid, Standard Abbe refractometry

Cc1cc(C)cc(C)c1 [1,3,5-trimethylbenzene] + CC1CCCCC1
Conditions | mass density, [1] [kg/m3] | refractive index, [2] | speed of sound, [1] [m/s]
298.15 K, x2 = 0 | 861.1 | 1.49693 | 1336
298.15 K, x2 = 0.0463 | 856.7 | 1.49346 | 1330
298.15 K, x2 = 0.0962 | 851.9 | 1.48973 | 1323
298.15 K, x2 = 0.197 | 842.2 | 1.48211 | 1310
298.15 K, x2 = 0.2868 | 833.5 | 1.47524 | 1298
298.15 K, x2 = 0.3963 | 822.8 | 1.46685 | 1283
298.15 K, x2 = 0.4972 | 813 | 1.45909 | 1271
298.15 K, x2 = 0.5956 | 803.4 | 1.45153 | 1259
298.15 K, x2 = 0.6974 | 793.6 | 1.44373 | 1247
298.15 K, x2 = 0.7932 | 784.3 | 1.43635 | 1236
298.15 K, x2 = 0.8942 | 774.8 | 1.42859 | 1226
298.15 K, x2 = 0.9497 | 769.6 | 1.42444 | 1220
313.15 K, x2 = 0 | 848.8 | 1.48923 | 1277
313.15 K, x2 = 0.0524 | 843.8 | 1.48547 | 1269
313.15 K, x2 = 0.1075 | 838.5 | 1.48144 | 1262
313.15 K, x2 = 0.2051 | 829.1 | 1.47418 | 1248
313.15 K, x2 = 0.314 | 818.5 | 1.466 | 1233
313.15 K, x2 = 0.4067 | 809.5 | 1.45892 | 1221
313.15 K, x2 = 0.5093 | 799.5 | 1.45103 | 1207
313.15 K, x2 = 0.6083 | 789.8 | 1.44335 | 1195
313.15 K, x2 = 0.7071 | 780.1 | 1.43558 | 1183
313.15 K, x2 = 0.8106 | 770.1 | 1.42752 | 1171
313.15 K, x2 = 0.9093 | 760.4 | 1.41983 | 1159
313.15 K, x2 = 0.9596 | 755.7 | 1.41588 | 1154

Cc1cccc(C)c1 [1,3-dimethylbenzene] + C1CCCC1
x2 = 0
Conditions | mass density, [1] [kg/m3] | refractive index, [2] | speed of sound, [1] [m/s]
298.15 K | 859.8 | 1.49466 | 1321
313.15 K | 846.9 | 1.48653 | 1259

Cc1cccc(C)c1 [1,3-dimethylbenzene] + C1CCCCC1
Conditions | mass density, [1] [kg/m3] | refractive index, [2] | speed of sound, [1] [m/s]
298.15 K, x2 = 0 | 859.8 | 1.49466 | 1321
298.15 K, x2 = 0.0346 | 856.9 | 1.49219 | 1317
298.15 K, x2 = 0.096 | 851.4 | 1.48781 | 1310
298.15 K, x2 = 0.1974 | 842.2 | 1.48052 | 1300
298.15 K, x2 = 0.2879 | 834.1 | 1.47391 | 1291
298.15 K, x2 = 0.3982 | 824.1 | 1.46589 | 1281
298.15 K, x2 = 0.5005 | 815 | 1.45851 | 1273
298.15 K, x2 = 0.6019 | 806.2 | 1.45128 | 1267
298.15 K, x2 = 0.6976 | 797.9 | 1.44447 | 1261
298.15 K, x2 = 0.7985 | 789.4 | 1.43723 | 1257
298.15 K, x2 = 0.9021 | 781.1 | 1.42992 | 1254
298.15 K, x2 = 0.9509 | 777.4 | 1.42673 | 1254
313.15 K, x2 = 0 | 846.9 | 1.48653 | 1259
313.15 K, x2 = 0.0355 | 843.7 | 1.48408 | 1255
313.15 K, x2 = 0.095 | 838.3 | 1.47988 | 1248
313.15 K, x2 = 0.1903 | 829.6 | 1.47305 | 1238
313.15 K, x2 = 0.2937 | 820.2 | 1.46566 | 1227
313.15 K, x2 = 0.3969 | 810.8 | 1.45826 | 1217
313.15 K, x2 = 0.4919 | 802.3 | 1.45153 | 1209
313.15 K, x2 = 0.5952 | 793.1 | 1.44402 | 1200
313.15 K, x2 = 0.6963 | 784.3 | 1.43677 | 1193
313.15 K, x2 = 0.7968 | 775.5 | 1.42954 | 1187
313.15 K, x2 = 0.8984 | 767.3 | 1.42246 | 1183
313.15 K, x2 = 0.9496 | 763.45 | 1.41885 | 1182

Cc1cccc(C)c1 [1,3-dimethylbenzene] + C1CCCCCCC1
x2 = 0
Conditions | mass density, [1] [kg/m3] | refractive index, [2] | speed of sound, [1] [m/s]
298.15 K | 859.8 | 1.49466 | 1321
313.15 K | 846.9 | 1.48653 | 1259

Cc1cccc(C)c1 [1,3-dimethylbenzene] + CC1CCCCC1
Conditions | mass density, [1] [kg/m3] | refractive index, [2] | speed of sound, [1] [m/s]
298.15 K, x2 = 0 | 859.8 | 1.49466 | 1321
298.15 K, x2 = 0.0514 | 854.4 | 1.49046 | 1313
298.15 K, x2 = 0.0975 | 849.6 | 1.4867 | 1307
298.15 K, x2 = 0.159 | 843.2 | 1.48174 | 1298
298.15 K, x2 = 0.2977 | 829.1 | 1.47072 | 1281
298.15 K, x2 = 0.399 | 819.1 | 1.46292 | 1269
298.15 K, x2 = 0.4954 | 809.7 | 1.45565 | 1258
298.15 K, x2 = 0.5965 | 800.2 | 1.44827 | 1248
298.15 K, x2 = 0.6974 | 791 | 1.44107 | 1238
298.15 K, x2 = 0.7948 | 782.3 | 1.4343 | 1230
298.15 K, x2 = 0.8933 | 773.8 | 1.42759 | 1222
298.15 K, x2 = 0.9495 | 769.1 | 1.42388 | 1218
313.15 K, x2 = 0 | 846.9 | 1.48653 | 1259
313.15 K, x2 = 0.0457 | 842.1 | 1.4829 | 1252
313.15 K, x2 = 0.0933 | 837.1 | 1.47908 | 1246
313.15 K, x2 = 0.1938 | 826.7 | 1.47103 | 1232
313.15 K, x2 = 0.2886 | 817 | 1.46361 | 1219
313.15 K, x2 = 0.3966 | 806.3 | 1.45534 | 1206
313.15 K, x2 = 0.5077 | 795.5 | 1.44702 | 1194
313.15 K, x2 = 0.595 | 787.3 | 1.44063 | 1184
313.15 K, x2 = 0.6933 | 778.3 | 1.43362 | 1175
313.15 K, x2 = 0.7987 | 768.8 | 1.42615 | 1165
313.15 K, x2 = 0.8973 | 760.3 | 1.41945 | 1157
313.15 K, x2 = 0.9504 | 756.1 | 1.41609 | 1153

Cc1ccc(C)cc1 [1,4-dimethylbenzene] + C1CCCC1
x2 = 0
Conditions | mass density, [1] [kg/m3] | refractive index, [2] | speed of sound, [1] [m/s]
298.15 K | 856.6 | 1.49312 | 1310
313.15 K | 843.5 | 1.48444 | 1248
